In publication PMC5217372, “Activation of SsoPK4, an Archaeal eIF2α Kinase Homolog, by Oxidized CoA” (Proteomes, 2015):

Test system: rSsoPK4(284–635)
Test: Protein kinase activity assay (filter paper method, [γ-32P]ATP, 65 °C) of rSsoPK4(284–635)
Type: biochemical, Sulfolobus solfataricus
Settings: for perturbed the activity of rSsoPK4: compound at 100 µM; for Inhibitor: effector at 100 µM, MBP as phosphoacceptor substrate
Procedure: Protein kinase activity was routinely assayed by the filter paper method of Corbin and Reimann as modified by Lower and Kennelly. The final volume of the assays was typically 50 μL. The quantity of rSsoPK4 assayed ranged from 0.1 to 5.0 µg. Both MgCl2 and MnCl2 were included at a final concentration of 5 mM each. The final concentration of [γ-^32P]ATP was 100 μM. The specific activity of the [γ-^32P]ATP generally ranged from 2 to 5 × 10^15 cpm/mol. Phosphoacceptor proteins were generally present at a concentration of 0.5–1.0 µg/µL. The assay mixture was typically incubated for a period of 30 min to one hour at 65 °C in 50 mM MOPS pH 7.0. On occasion, the proteins within the assay mixture were resolved by SDS-PAGE in order to identify the specific polypeptides that were phosphorylated. Radiolabeled species were visualized using an Instant Imager from Packard (Downers Grove, IL, USA).

Row | Compound | perturbed the activity of rSsoPK4 | Inhibitor | effect on protein kinase activity toward MBP (MBP substrate, compounds at 1 mM (Figure 8))
1 | Nc1ncnc2c1ncn2[C@@H]1O[C@H](COP(=O)(O)OS(=O)(=O)O)[C@@H](O)[C@H]1O [Adenosine phosphosulfate] | perturbed the activity | Y (designated as inhibitors (Y) if they were observed to stimulate or reduce, respectively, catalytic activity by greater than 20% relative to controls lacking added effectors) | 
2 | O=c1ccn([C@@H]2O[C@H](COP(=O)(O)O)[C@@H](O)[C@H]2O)c(=O)[nH]1 [5ʹ-UMP] |  | N (Where a change of ±20% or less in enzyme activity was observed, the compound was designated as non-inhibitory (N)) | 
3 | NC(=O)C1=CN([C@@H]2O[C@H](COP(=O)(O)OP(=O)(O)OC[C@H]3O[C@@H](n4cnc5c(N)ncnc54)[C@H](O)[C@@H]3O)[C@@H](O)[C@H]2O)C=CC1 [NADH] |  | N (Where a change of ±20% or less in enzyme activity was observed, the compound was designated as non-inhibitory (N)) | 
4 | Nc1ccn([C@@H]2O[C@H](COP(=O)(O)O)[C@@H](O)[C@H]2O)c(=O)n1 [5ʹ-CMP] |  | N (Where a change of ±20% or less in enzyme activity was observed, the compound was designated as non-inhibitory (N)) | 
5 | Nc1nc2c(ncn2[C@@H]2O[C@H](COP(=O)(O)OP(=O)(O)OP(=O)(O)O)[C@@H](O)[C@H]2O)c(=O)[nH]1 [GTP] |  | N (Where a change of ±20% or less in enzyme activity was observed, the compound was designated as non-inhibitory (N)) | 
6 | NC(=O)c1ccc[n+]([C@@H]2O[C@H](COP(=O)([O-])OP(=O)(O)OC[C@H]3O[C@@H](n4cnc5c(N)ncnc54)[C@H](OP(=O)(O)O)[C@@H]3O)[C@@H](O)[C@H]2O)c1 [NADP^+] |  | N (Where a change of ±20% or less in enzyme activity was observed, the compound was designated as non-inhibitory (N)) | 
7 | Nc1ncnc2c1ncn2[C@@H]1O[C@H](COP(=O)(O)OP(=O)(O)O)[C@@H](O)[C@H]1O [ADP] | perturbed the activity | Y (designated as inhibitors (Y) if they were observed to stimulate or reduce, respectively, catalytic activity by greater than 20% relative to controls lacking added effectors) | 
8 | Nc1ncnc2c1ncn2[C@@H]1O[C@H](CSCC[C@H](N)C(=O)O)[C@@H](O)[C@H]1O [S-Adenosyl-homocysteine] |  | N (Where a change of ±20% or less in enzyme activity was observed, the compound was designated as non-inhibitory (N)) | 
9 | NC(=O)c1ccc[n+]([C@@H]2O[C@H](COP(=O)([O-])OP(=O)(O)OC[C@H]3O[C@@H](n4cnc5c(N)ncnc54)[C@H](O)[C@@H]3O)[C@@H](O)[C@H]2O)c1 [NAD^+] |  | N (Where a change of ±20% or less in enzyme activity was observed, the compound was designated as non-inhibitory (N)) | 
10 | Cc1cc2nc3c(=O)[nH]c(=O)nc-3n(C[C@H](O)[C@H](O)[C@H](O)COP(=O)(O)OP(=O)(O)OC[C@H]3O[C@@H](n4cnc5c(N)ncnc54)[C@H](O)[C@@H]3O)c2cc1C [FAD^+] |  | N (Where a change of ±20% or less in enzyme activity was observed, the compound was designated as non-inhibitory (N)) | 
11 | CC(C)(COP(=O)(O)OP(=O)(O)OC[C@H]1O[C@@H](n2cnc3c(N)ncnc32)[C@H](O)[C@@H]1OP(=O)(O)O)[C@@H](O)C(=O)NCCC(=O)NCCS [CoASH, reduced CoA] |  | N (Where a change of ±20% or less in enzyme activity was observed, the compound was designated as non-inhibitory (N)) | 
12 | Cc1ncc(C[n+]2csc(CCOP(=O)(O)OP(=O)(O)O)c2C)c(N)n1 [Thiamine-PPi] |  | N (Where a change of ±20% or less in enzyme activity was observed, the compound was designated as non-inhibitory (N)) | 
13 | Oxidized glutathione |  |  | no effect
14 | Nc1ncnc2c1ncn2[C@@H]1O[C@H](CO)[C@@H](OP(=O)(O)O)[C@H]1O [3ʹ-AMP] | perturbed the activity | Y (designated as inhibitors (Y) if they were observed to stimulate or reduce, respectively, catalytic activity by greater than 20% relative to controls lacking added effectors) | 
15 | Nc1ncnc2c1ncn2[C@@H]1O[C@H](CO)[C@H]2OP(=O)(O)O[C@H]21 [2ʹ,3ʹ-cAMP] | perturbed the activity | Y (designated as inhibitors (Y) if they were observed to stimulate or reduce, respectively, catalytic activity by greater than 20% relative to controls lacking added effectors) | 
16 | Nc1ncnc2c1ncn2[C@H]1C[C@H](O)[C@@H](COP(=O)(O)O)O1 [5ʹ-dAMP] |  | N (Where a change of ±20% or less in enzyme activity was observed, the compound was designated as non-inhibitory (N)) | 
17 | CC(=O)SCCNC(=O)CCNC(=O)[C@H](O)C(C)(C)COP(=O)(O)OP(=O)(O)OC[C@H]1O[C@@H](n2cnc3c(N)ncnc32)[C@H](O)[C@@H]1OP(=O)(O)O [Acetyl-CoA] |  | N (Where a change of ±20% or less in enzyme activity was observed, the compound was designated as non-inhibitory (N)) | 
18 | Nc1nc2c(ncn2[C@@H]2O[C@H](COP(=O)(O)O)[C@@H](O)[C@H]2O)c(=O)[nH]1 [5ʹ-GMP] |  | N (Where a change of ±20% or less in enzyme activity was observed, the compound was designated as non-inhibitory (N)) | 
19 | Nc1ncnc2c1ncn2[C@@H]1O[C@H](COP(=O)(O)OS(=O)(=O)O)[C@@H](OP(=O)(O)O)[C@H]1O [Phosphoadenosine phosphosulfate] |  | N (Where a change of ±20% or less in enzyme activity was observed, the compound was designated as non-inhibitory (N)) | 
20 | C[S+](CC[C@H](N)C(=O)[O-])C[C@H]1O[C@@H](n2cnc3c(N)ncnc32)[C@H](O)[C@@H]1O (stereo partly drawn) [S-Adenosyl-Methionine] |  | N (Where a change of ±20% or less in enzyme activity was observed, the compound was designated as non-inhibitory (N)) | 
21 | Nc1ncnc2c1ncn2[C@@H]1O[C@H](COP(=O)(O)O)[C@@H](O)[C@H]1O [5'AMP, 5ʹ-AMP] | perturbed the activity | Y (designated as inhibitors (Y) if they were observed to stimulate or reduce, respectively, catalytic activity by greater than 20% relative to controls lacking added effectors) | 
22 | NC(=O)C1=CN([C@@H]2O[C@H](COP(=O)(O)OP(=O)(O)OC[C@H]3O[C@@H](n4cnc5c(N)ncnc54)[C@H](OP(=O)(O)O)[C@@H]3O)[C@@H](O)[C@H]2O)C=CC1 [NADPH] |  | N (Where a change of ±20% or less in enzyme activity was observed, the compound was designated as non-inhibitory (N)) | 
